Reference: patent US7273886B2 (Genentech, Inc., priority 2003, dated 2007)
In brackets after ≈: the same amount, converted by molar mass.

Key:
[1] = biological target: T1, XIIA (Homo sapiens, UniProt P00748); test: XIIA inhibition (Ki); format: biochemical
T1 sequence (P00748 373-615 limits assumed): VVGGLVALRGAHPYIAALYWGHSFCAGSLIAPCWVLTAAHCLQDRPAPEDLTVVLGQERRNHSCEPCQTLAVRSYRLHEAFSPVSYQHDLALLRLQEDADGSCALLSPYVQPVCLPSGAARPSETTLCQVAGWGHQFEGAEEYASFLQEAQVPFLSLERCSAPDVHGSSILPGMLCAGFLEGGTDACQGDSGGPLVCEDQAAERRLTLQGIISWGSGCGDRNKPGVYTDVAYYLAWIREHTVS

[2] = biological target: tPA (Homo sapiens, UniProt P00750); test: tPA inhibition (Ki); format: biochemical
tPA, sequence (P00750 36-562, species assumed): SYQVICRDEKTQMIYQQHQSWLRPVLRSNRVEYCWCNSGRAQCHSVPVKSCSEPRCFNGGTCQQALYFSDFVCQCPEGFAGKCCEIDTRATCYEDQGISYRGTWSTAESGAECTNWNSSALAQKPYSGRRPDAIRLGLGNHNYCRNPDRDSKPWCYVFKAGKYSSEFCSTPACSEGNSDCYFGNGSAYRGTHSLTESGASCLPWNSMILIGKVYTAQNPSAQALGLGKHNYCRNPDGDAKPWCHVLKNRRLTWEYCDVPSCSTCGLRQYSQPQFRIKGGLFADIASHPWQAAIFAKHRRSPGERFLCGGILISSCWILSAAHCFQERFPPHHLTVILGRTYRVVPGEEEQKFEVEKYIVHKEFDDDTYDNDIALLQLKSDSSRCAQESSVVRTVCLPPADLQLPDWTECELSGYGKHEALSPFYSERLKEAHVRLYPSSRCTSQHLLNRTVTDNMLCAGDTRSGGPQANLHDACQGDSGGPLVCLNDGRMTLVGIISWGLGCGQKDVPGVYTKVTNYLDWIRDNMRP

[3] = biological target: Urokinase (Homo sapiens, UniProt P00749); test: Urokinase inhibition (Ki); format: biochemical
[4] = biological target: T2, Thrombin (Homo sapiens, UniProt P00734); test: Thrombin assay (Ki); format: biochemical
T2 construct: rapidly converts prothrombin to thrombin; purchased Hematologic Technologies
Experimental: (§1) Factor Xa, Thrombin, and Plasma Kallikrein Assays
(§2) These procedures can be used to determine the constant of inhibition (Ki) for a sample compound of the invention.
(§3) • Assay Buffer: 100 mM Hepes pH 7.8, 140 mM NaCl, 0.1% PEG-8000, 0.02% Tween-80 • Coagulation human Factor Xa, Thrombin, or Plasma Kallikrein (Hematologic Technologies) • Factor: Dilute to 0.45 μg/mL (9.8 nM) in assay buffer. • Substrate: S-2222, S2366 or S2302—(See below—Chromogenix Inc,) Reconstitute at 5 mM in H2O. Dilute to 1.5 mM in assay buffer prior to use. • Samples: Dilute samples to 3% DMSO in assay buffer. Procedure: • 1. Add 50 μL sample to each well. • 2. Add 50 μL appropriately diluted coagulation factor to each well. • 3. Incubate for 5 minutes at room temperature with gentle agitation. • 4. Add 50 μL appropriately diluted substrate to each well. • 5. Agitate plate for 20–25 sec. • 6. Monitor absorbance at 405 nm every 10 sec for a total of 5 minutes at room temperature. • 7. Calculate Vmax over 10 points. Assay—Enzyme, Substrate and Final Concentrations

[5] = biological target: T3, HGFA (Homo sapiens, UniProt Q04756); test: HGFA inhibition (Ki); format: biochemical
T3 sequence (Q04756 373-655): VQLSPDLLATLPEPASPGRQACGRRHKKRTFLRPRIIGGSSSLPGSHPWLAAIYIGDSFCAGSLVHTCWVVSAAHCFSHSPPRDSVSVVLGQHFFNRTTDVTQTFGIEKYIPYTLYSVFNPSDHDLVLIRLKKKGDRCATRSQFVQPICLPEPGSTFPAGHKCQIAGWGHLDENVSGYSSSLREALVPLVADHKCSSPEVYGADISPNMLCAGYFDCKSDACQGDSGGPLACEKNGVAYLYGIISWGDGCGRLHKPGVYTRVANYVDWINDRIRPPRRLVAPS

[6] = biological target: Plasmin (Homo sapiens, UniProt P00747); test: Plasmin inhibition (Ki); format: biochemical
Plasmin, sequence (P00747 581-810 limits assumed, species assumed): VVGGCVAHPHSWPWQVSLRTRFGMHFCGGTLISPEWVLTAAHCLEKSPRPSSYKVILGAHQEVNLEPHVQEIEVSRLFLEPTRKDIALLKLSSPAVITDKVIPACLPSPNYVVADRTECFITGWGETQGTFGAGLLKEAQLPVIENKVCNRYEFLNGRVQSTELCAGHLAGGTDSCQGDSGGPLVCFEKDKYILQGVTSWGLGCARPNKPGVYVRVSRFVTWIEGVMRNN
Plasmin, sequence (P00747 97-580 limits assumed, species assumed): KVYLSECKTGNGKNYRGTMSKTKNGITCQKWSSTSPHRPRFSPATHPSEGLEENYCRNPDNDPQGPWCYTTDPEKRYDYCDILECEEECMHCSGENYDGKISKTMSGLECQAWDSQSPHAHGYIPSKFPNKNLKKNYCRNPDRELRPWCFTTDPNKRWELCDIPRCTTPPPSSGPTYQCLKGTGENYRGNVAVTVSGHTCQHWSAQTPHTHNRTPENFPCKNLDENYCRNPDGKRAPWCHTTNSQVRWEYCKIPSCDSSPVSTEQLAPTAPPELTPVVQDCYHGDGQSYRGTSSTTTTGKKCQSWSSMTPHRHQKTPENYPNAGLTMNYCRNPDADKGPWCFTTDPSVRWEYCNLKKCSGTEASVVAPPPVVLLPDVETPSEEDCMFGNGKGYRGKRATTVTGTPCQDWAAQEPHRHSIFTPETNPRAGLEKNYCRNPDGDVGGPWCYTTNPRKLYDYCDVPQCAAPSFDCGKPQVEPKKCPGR

[7] = biological target: T4, TFVIIa (Homo sapiens, UniProt P08709); test: Tissue Factor/Factor VIIa antagonist assay (Ki); format: biochemical
T4 construct: recombinant human factor VIIa; NB #25942–16
T4 sequence (P08709 61-212 limits assumed): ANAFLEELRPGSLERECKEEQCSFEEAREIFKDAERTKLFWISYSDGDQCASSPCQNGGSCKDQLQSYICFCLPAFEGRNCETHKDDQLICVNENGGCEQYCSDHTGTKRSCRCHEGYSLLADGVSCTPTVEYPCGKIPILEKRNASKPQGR
T4 sequence (P08709 213-466 limits assumed): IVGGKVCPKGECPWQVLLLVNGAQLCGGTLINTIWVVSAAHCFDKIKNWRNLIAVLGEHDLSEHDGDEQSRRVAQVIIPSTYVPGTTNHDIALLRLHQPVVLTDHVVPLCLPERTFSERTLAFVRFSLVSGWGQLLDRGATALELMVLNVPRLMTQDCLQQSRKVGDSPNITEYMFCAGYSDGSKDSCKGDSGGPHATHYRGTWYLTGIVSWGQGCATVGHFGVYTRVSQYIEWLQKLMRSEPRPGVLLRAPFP
T4 sequence (P13726 33-251 partner limits assumed): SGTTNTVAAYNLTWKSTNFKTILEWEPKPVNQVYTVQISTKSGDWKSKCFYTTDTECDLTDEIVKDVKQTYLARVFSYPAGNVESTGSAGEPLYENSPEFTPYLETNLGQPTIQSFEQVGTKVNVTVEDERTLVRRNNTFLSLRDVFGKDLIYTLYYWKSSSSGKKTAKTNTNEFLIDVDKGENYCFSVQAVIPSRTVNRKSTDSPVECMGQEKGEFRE
Experimental: Tissue Factor/Factor VIIa Antagonist Assay
This procedure can be used to determine the constant of inhibition (Ki) for a sample compound of the invention.
• Assay Buffer: 100 mM Hepes pH 7.8, 140 mM NaCl, 0.1% PEG-8000, 0.02% Tween-80, 5 mM CaCl2 Coagulation • Factor: recombinant human factor VIIa (NB #25942–16) • Cofactor: soluble Tissue Factor (1-219) • Substrate: Chromozym-tPA (Boehringer Mannheim, Cat. #1093 037) Reconstitute at 20 mM in H2O. Dilute to 4 mM in assay buffer with CaCl2 prior to use. • Samples: Dilute samples to 3% DMSO in assay buffer (lacking CaCl2). Procedure: • 1. Prepare a solution of 2 μg/mL (90 nM) tissue factor and 1.5 μg/mL (30 nM) factor VIIa in assay buffer with CaCl2. • 2. Incubate for 15 minutes at room temperature. • 3. Add 50 μL sample to each well. • 4. Add 50 μL tissue factor/factor VIIa solution to each well. • 5. Incubate for 15 minutes at room temperature with gentle agitation. • 6. Add 50 μL substrate to each well. • 7. Agitate plate for 20–25 sec. • 8. Monitor absorbance at 405 nm every 10 sec for a total of 5 minutes at room temperature. • 9. Calculate Vmax over 10 points.

[8] = biological target: T5, Plasma Kallikrein (Homo sapiens, UniProt P03952); test: Plasma Kallikrein assay (Ki); format: biochemical
T5 construct: human Factor Xa, Thrombin, or Plasma Kallikrein (Hematologic Technologies); purchased Hematologic Technologies
T5 sequence (P03952 20-390 limits assumed): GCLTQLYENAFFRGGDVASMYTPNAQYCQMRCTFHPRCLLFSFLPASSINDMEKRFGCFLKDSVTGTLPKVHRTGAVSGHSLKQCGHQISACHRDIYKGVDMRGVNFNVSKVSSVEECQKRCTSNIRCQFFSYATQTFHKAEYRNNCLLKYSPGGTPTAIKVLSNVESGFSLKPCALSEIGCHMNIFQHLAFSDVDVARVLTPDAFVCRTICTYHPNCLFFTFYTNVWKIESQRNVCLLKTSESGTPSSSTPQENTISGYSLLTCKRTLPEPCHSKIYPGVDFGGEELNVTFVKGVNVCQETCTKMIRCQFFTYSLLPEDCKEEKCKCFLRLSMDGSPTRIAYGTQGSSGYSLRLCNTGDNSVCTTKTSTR
T5 sequence (P03952 391-638 limits assumed): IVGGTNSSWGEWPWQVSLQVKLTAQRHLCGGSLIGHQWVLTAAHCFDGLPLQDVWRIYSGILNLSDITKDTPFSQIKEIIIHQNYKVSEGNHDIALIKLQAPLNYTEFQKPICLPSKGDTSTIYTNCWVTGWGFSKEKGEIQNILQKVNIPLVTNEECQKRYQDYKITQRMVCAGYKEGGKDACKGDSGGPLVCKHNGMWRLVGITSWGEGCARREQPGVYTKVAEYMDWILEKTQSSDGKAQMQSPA
Experimental: as §1, §2, §3

[9] = biological target: Chymotrypsin; test: Chymotrypsin inhibition (Ki); format: biochemical
[10] = biological target: T6, Complement CS1 (Homo sapiens, UniProt P09871); test: Complement CS1 inhibition (Ki); format: biochemical
T6 sequence (P09871 16-688): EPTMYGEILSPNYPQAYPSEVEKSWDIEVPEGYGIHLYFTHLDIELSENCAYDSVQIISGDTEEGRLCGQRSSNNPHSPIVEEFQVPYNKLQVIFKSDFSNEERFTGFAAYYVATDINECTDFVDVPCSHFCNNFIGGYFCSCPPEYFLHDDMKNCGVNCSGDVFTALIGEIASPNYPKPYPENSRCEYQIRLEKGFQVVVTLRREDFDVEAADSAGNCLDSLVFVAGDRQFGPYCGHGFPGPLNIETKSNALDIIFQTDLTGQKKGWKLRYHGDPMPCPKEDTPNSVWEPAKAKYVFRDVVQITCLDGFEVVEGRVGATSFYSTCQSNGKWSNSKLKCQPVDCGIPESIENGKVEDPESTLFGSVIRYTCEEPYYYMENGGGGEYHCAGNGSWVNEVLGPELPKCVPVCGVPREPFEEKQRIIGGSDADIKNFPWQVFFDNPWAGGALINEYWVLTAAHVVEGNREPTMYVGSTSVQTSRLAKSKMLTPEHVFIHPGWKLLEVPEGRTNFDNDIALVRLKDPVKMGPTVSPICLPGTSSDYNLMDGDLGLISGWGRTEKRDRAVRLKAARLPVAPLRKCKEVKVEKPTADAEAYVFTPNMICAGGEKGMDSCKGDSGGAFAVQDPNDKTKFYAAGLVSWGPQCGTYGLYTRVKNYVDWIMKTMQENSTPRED

[11] = biological target: Trypsin; test: Trypsin inhibition (Ki); format: biochemical
[12] = biological target: T7, F. Xa (Homo sapiens, UniProt P00742); test: Factor Xa assay (Ki); format: biochemical
T7 construct: This complex converts factor X to Xa; purchased Hematologic Technologies
T7 sequence (P00742 41-179 limits assumed): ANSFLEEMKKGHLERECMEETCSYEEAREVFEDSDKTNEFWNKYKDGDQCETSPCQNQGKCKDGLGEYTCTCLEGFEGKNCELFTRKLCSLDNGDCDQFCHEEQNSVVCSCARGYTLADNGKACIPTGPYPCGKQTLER
T7 sequence (P00742 235-488 limits assumed): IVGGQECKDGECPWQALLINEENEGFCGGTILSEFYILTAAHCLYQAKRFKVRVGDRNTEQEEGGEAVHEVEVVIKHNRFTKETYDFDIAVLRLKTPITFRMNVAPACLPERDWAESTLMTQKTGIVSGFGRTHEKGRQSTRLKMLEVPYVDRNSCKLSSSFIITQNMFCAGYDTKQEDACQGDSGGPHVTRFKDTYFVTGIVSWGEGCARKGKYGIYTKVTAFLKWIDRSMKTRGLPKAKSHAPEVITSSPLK
Experimental: as §1, §2, §3

[13] = biological target: Acetylcholinesterase (Homo sapiens, UniProt P22303); test: Acetylcholinesterase inhibition (Ki); format: biochemical
Acetylcholinesterase, sequence (P22303 32-614, species assumed): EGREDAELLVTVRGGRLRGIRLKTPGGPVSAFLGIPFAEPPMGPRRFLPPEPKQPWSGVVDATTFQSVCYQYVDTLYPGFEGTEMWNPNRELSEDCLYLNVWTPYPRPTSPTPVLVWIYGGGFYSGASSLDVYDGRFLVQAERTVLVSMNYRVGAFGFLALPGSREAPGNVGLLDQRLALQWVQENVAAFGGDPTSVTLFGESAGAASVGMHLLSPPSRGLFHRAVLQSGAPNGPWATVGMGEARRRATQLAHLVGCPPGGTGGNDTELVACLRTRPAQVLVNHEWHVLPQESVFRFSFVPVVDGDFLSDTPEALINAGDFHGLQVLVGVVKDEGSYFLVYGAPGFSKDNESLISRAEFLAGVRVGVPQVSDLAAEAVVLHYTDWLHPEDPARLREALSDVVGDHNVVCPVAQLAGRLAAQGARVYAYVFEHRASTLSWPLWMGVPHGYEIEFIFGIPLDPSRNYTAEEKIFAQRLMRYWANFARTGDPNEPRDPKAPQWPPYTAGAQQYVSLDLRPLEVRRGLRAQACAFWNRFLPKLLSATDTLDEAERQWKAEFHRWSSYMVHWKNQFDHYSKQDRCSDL

[14] = biological target: XIA (Homo sapiens, UniProt P03951); test: XIA inhibition (Ki); format: biochemical; conditions: XIA
XIA (Homo sapiens, UniProt P03951), sequence (P03951 388-625 limits assumed): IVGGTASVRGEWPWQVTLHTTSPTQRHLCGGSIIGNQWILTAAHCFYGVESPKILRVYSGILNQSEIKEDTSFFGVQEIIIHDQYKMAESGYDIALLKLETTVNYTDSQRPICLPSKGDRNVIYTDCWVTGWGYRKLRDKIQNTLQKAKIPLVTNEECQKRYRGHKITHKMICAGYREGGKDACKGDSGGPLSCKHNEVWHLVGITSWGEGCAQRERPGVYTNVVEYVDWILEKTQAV

[15] = tested on: XIA; test: XIA inhibition (Ki); format: biochemical; conditions: XIA relative to TFVIIa
[16] = biological target: APC (Homo sapiens, UniProt P04070); test: APC inhibition (Ki); format: biochemical; conditions: APC
APC (Homo sapiens, UniProt P04070), sequence (P04070 212-461 limits assumed): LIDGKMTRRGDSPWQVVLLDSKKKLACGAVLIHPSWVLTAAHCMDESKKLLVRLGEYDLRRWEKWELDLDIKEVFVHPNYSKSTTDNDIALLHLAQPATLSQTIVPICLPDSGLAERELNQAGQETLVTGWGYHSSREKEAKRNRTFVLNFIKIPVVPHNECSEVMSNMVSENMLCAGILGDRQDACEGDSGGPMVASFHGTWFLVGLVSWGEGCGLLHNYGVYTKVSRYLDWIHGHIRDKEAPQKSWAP

[17] = tested on: APC; test: APC inhibition (Ki); format: biochemical; conditions: APC relative to TFVIIa
[18] = Plasma concentrations following IV bolus administration in rhesus monkey; format: in vivo; conditions: IV bolus 1 mg/kg
Experimental: Dosing of Benzofuran Compounds in Rhesus Monkeys
IV Bolus: Inhibitors were formulated in a 1 mg/ml solution of 20–30% PEG 400/sterile water. The drug was administered as an IV bolus over 1 minute at 1 mg/kg. 1.0 ml blood samples were collected at each time point on 20 μl 8.5% K2EDTA. Blood samples for the IV dosed animals were be collected from a short, large bore catheter (needle <25G) placed in the saphenous or cephalic vein for all time points up to 3 hours after dosing. The catheters were then removed, the animals returned to their cages and latter samples collected by venipuncture. Venipuncture samples can be obtained from any superficial vein that can easily be compressed (e.g. cephalic, or saphenous but not from the femoral plexus). Sample time points were taken generally at the following times: pre-dose, 2, 5, 10, 20, 30, 40, 60, 90, 120, 150, 180 minutes and at 4, 6, 12, 24, and 48 hours.

[19] = Solubility in water; format: physicochemical; conditions: aqueous buffer, thermodynamic from solid, amorphous solid

CCc1cc(C(Nc2ccc(C(=N)N)cc2)C(=O)NS(N)(=O)=O)cc2c(C)coc12 (stereo not shown) [Compound 8]
Ki ([1]; XIIA): > 8700 nM
Selectivity ([1]; XIIA relative to TFVIIa): >2175 X
Ki ([2]; tPA): > 7800 nM
Selectivity ([2]; tPA relative to TFVIIa): >1950 X
Ki ([3]; Urokinase): > 6800 nM
Selectivity ([3]; Urokinase relative to TFVIIa): >1700 X
Ki ([4]; Thrombin): 830 nM
Selectivity ([4]; Thrombin relative to TFVIIa): 207 X
Ki ([5]; HGFA): 6400 nM
Selectivity ([5]; HGFA relative to TFVIIa): 1600 X
Ki ([6]; Plasmin): 880 nM
Selectivity ([6]; Plasmin relative to TFVIIa): 220 X
Ki ([7]; TFVIIa): 4 nM
Selectivity ([7]; TFVIIa (reference)): 1 X
Ki ([8]; Plasma Kallikrein): 82 nM
Selectivity ([8]; Plasma Kallikrein relative to TFVIIa): 20 X
Ki ([9]; Chymotrypsin): > 6900 nM
Selectivity ([9]; Chymotrypsin relative to TFVIIa): >1725 X
Ki ([10]; Complement CS1): > 6500 nM
Selectivity ([10]; Complement CS1 relative to TFVIIa): >1625 X
Ki ([11]; Trypsin): 2100 nM
Selectivity ([11]; Trypsin relative to TFVIIa): 525 X
Ki ([12]; F. Xa): > 7000 nM
Selectivity ([12]; F. Xa relative to TFVIIa): >1750 X
Ki [13]: > 6800 nM
Selectivity ([13]; Acetylcholinesterase relative to TFVIIa): 1700 X
Ki [14]: > 8000 nM
Selectivity [15]: >2000 X
Ki [16]: 1440 nM
Selectivity [17]: 360 X

CCOc1cc(OCC)cc(C(Nc2ccc(C(=N)N)cc2)C(=O)NS(=O)(=O)CC)c1 (stereo not shown)
clearance [18]: 8.6 mL/min/kg body weight
half-life ([18]; plasma): 1.25 h

CCc1cc(C(Nc2ccc(/C(N)=N\OCc3ccc(OC)cc3)cc2)C(=O)NS(N)(=O)=O)cc2c(C)coc12 (stereo not shown) [Compound 26]
solubility ([19]; pH 2): 115 µM (≈ 65 µg/mL)
solubility ([19]; pH 6.5): 98 µM (≈ 55.4 µg/mL)
